Molecular target: CDK4 (Homo sapiens, UniProt P11802+Q16531)
Assay: CDK4 percentage degradation in Calu-1 cells (Table 6)
Type: cell-based
Parameters: Cells that express cyclin D1-3 and CDK4/6 proteins were treated with heterobifunctional compounds; endogenous in cells; host or cells: Calu-1
Conditions: 16 hours; for inhibition at 0.04 µM: 40 nM; for inhibition at 0.2 µM: 200 nM
Outline: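 Percentage degradation of Cyclin D1 and CDK4 derived from densitometry of ECL Western blots on lysates of Calu-1 cells. Treatment was 16 h with compound at either 40 nM or 200 nM.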

Sequence of CDK4 (P11802 2-303 limits assumed): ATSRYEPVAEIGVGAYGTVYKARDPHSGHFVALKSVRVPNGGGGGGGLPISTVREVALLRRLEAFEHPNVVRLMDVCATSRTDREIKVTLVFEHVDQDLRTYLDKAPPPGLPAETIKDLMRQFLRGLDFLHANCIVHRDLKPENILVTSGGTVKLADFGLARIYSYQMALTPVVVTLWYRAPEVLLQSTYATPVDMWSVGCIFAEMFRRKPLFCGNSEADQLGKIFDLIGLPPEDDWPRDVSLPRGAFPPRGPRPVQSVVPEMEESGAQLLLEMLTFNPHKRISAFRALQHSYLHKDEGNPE
Sequence of CDK4 (P24385 whole entry partner): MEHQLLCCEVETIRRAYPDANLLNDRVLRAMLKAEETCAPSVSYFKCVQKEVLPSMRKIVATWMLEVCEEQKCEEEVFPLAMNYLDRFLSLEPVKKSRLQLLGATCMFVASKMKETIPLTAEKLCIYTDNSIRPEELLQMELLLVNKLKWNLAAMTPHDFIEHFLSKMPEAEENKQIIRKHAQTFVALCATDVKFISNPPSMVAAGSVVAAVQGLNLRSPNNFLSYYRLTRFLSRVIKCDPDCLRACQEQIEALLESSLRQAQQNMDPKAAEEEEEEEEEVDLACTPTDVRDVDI
Sequence of CDK4 (Q16531 2-1140 limits assumed): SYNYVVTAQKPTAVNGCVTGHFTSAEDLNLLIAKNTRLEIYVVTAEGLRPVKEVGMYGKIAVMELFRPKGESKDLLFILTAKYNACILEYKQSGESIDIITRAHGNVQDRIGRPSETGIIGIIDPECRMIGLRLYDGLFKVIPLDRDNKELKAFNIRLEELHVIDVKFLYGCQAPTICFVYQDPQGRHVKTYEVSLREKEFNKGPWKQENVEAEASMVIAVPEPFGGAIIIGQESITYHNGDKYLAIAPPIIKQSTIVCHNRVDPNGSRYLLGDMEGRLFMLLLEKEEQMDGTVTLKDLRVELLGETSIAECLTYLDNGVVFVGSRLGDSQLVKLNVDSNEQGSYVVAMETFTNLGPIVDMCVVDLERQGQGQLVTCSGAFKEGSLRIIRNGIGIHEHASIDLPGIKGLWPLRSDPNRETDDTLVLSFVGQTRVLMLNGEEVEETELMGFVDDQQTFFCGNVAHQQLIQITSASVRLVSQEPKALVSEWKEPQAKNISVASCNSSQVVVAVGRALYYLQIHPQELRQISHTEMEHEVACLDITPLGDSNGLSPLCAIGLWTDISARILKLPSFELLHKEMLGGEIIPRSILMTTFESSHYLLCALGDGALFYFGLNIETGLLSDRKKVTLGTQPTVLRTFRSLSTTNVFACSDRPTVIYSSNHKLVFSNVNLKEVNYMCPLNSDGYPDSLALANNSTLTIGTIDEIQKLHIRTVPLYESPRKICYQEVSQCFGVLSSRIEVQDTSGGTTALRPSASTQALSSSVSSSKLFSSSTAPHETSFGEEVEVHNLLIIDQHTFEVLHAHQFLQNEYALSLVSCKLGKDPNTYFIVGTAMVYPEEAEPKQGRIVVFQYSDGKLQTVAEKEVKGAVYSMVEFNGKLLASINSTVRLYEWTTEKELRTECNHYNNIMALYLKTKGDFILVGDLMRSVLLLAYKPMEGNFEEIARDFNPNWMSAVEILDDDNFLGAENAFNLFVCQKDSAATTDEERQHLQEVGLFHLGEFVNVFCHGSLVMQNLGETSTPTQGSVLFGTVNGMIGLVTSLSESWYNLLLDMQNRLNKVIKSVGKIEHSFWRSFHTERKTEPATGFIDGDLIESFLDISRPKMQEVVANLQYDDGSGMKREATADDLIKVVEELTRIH

CNc1ccc(C(=O)Nc2ccc(N(C)C)nn2)c(NC2CC(COCC(=O)N3CCN(c4ccc(Nc5ncc6c(C)c(C(C)=O)c(=O)n(C7CCCC7)c6n5)nc4)CC3)C2)n1 (centres unmarked) [CPD-164, 2-((3-((2-(4-(6-((6-acetyl-8-cyclopentyl-5-methyl-7-oxo-7,8-dihydropyrido[2,3-d]pyrimidin-2-yl)amino)pyridin-3-yl)piperazin-1-yl)-2-oxoethoxy)methyl)cyclobutyl)amino)-N-(6-(dimethylamino)pyridazin-3-yl)-6-(methylamino)nicotinamide]
inhibition at 0.04 µM: 50 to 80% | inhibition at 0.2 µM: > 80%

CNc1ccc(C(=O)Nc2nc(C)c(C)o2)c(NC2CC3(CC(NC(=O)CN4CCN(c5ccc(Nc6ncc7c(C)c(C(C)=O)c(=O)n(C8CCCC8)c7n6)nc5)CC4)C3)C2)n1 (centres unmarked) [CPD-247, 2-((6-(2-(4-(6-((6-acetyl-8-cyclopentyl-5-methyl-7-oxo-7,8-dihydropyrido[2,3-d]pyrimidin-2-yl)amino)pyridin-3-yl)piperazin-1-yl)acetamido)spiro[3.3]heptan-2-yl)amino)-N-(4,5-dimethyloxazol-2-yl)-6-(methylamino)nicotinamide]
inhibition at 0.04 µM: 50 to 80% | inhibition at 0.2 µM: 50 to 80%

CNc1ccc(C(=O)Nc2cc(C3CC3)n(C)n2)c(NC2CC3(CC(NC(=O)CN4CCN(c5ccc(Nc6ncc7c(C)c(C(C)=O)c(=O)n(C8CCCC8)c7n6)nc5)CC4)C3)C2)n1 (centres unmarked) [CPD-98, 2-((6-(2-(4-(6-((6-Acetyl-8-cyclopentyl-5-methyl-7-oxo-7,8-dihydropyrido[2,3-d]pyrimidin-2-yl)amino)pyridin-3-yl)piperazin-1-yl)acetamido)spiro[3.3]heptan-2-yl)amino)-N-(5-cyclopropyl-1-methyl-1H-pyrazol-3-yl)-6-(methylamino)nicotinamide]
inhibition at 0.04 µM: 30 to 50% | inhibition at 0.2 µM: 50 to 80%

CNc1ccc(C(=O)Nc2ccc(N(C)C)nn2)c(NC2CC3(C2)CN(C(=O)C(C)CN2CCN(c4ccc(Nc5ncc6c(C)c(C(C)=O)c(=O)n(C7CCCC7)c6n5)nc4)CC2)C3)n1 (centres unmarked) [CPD-117, 2-((2-(3-(4-(6-((6-Acetyl-8-cyclopentyl-5-methyl-7-oxo-7,8-dihydropyrido[2,3-d]pyrimidin-2-yl)amino)pyridin-3-yl)piperazin-1-yl)-2-methylpropanoyl)-2-azaspiro[3.3]heptan-6-yl)amino)-N-(6-(dimethylamino)pyridazin-3-yl)-6-(methylamino)nicotinamide]
inhibition at 0.04 µM: 50 to 80% | inhibition at 0.2 µM: 50 to 80%

CNc1ccc(C(=O)Nc2ccnc(C3CC3)c2)c(NC2CC3(CC(NC(=O)CN4CCN(c5ccc(Nc6ncc7c(C)c(C(C)=O)c(=O)n(C8CCCC8)c7n6)nc5)CC4)C3)C2)n1 (centres unmarked) [CPD-86, 2-((6-(2-(4-(6-((6-Acetyl-8-cyclopentyl-5-methyl-7-oxo-7,8-dihydropyrido[2,3-d]pyrimidin-2-yl)amino)pyridin-3-yl)piperazin-1-yl)acetamido)spiro[3.3]heptan-2-yl)amino)-N-(2-cyclopropylpyridin-4-yl)-6-(methylamino)nicotinamide]
inhibition at 0.04 µM: < 30% | inhibition at 0.2 µM: < 30%

CNc1ccc(C(=O)Nc2cc(C)on2)c(NC2CC3(CC(NC(=O)CN4CCN(c5ccc(Nc6ncc7c(C)c(C(C)=O)c(=O)n(C8CCCC8)c7n6)nc5)CC4)C3)C2)n1 (centres unmarked) [CPD-160, 2-((6-(2-(4-(6-((6-acetyl-8-cyclopentyl-5-methyl-7-oxo-7,8-dihydropyrido[2,3-d]pyrimidin-2-yl)amino)pyridin-3-yl)piperazin-1-yl)acetamido)spiro[3.3]heptan-2-yl)amino)-6-(methylamino)-N-(5-methylisoxazol-3-yl)nicotinamide]
inhibition at 0.04 µM: 50 to 80% | inhibition at 0.2 µM: > 80%

CNc1ccc(C(=O)Nc2cc[nH]n2)c(NC2CC3(CC(NC(=O)CN4CCN(c5ccc(Nc6ncc7c(C)c(C(C)=O)c(=O)n(C8CCCC8)c7n6)nc5)CC4)C3)C2)n1 (centres unmarked) [CPD-100, 2-((6-(2-(4-(6-((6-Acetyl-8-cyclopentyl-5-methyl-7-oxo-7,8-dihydropyrido[2,3-d]pyrimidin-2-yl)amino)pyridin-3-yl)piperazin-1-yl)acetamido)spiro[3.3]heptan-2-yl)amino)-6-(methylamino)-N-(1H-pyrazol-3-yl)nicotinamide]
inhibition at 0.04 µM: < 30% | inhibition at 0.2 µM: 50 to 80%

CNc1ccc(C(=O)Nc2ccc(N(C)C)nn2)c(NC2CC(NC(=O)C(C)(C)N3CCN(c4ccc(Nc5ncc6c(C)c(C(C)=O)c(=O)n(C7CCCC7)c6n5)nc4)CC3)C2)n1 (centres unmarked) [CPD-243, 2-((3-(2-(4-(6-((6-acetyl-8-cyclopentyl-5-methyl-7-oxo-7,8-dihydropyrido[2,3-d]pyrimidin-2-yl)amino)pyridin-3-yl)piperazin-1-yl)-2-methylpropanamido)cyclobutyl)amino)-N-(6-(dimethylamino)pyridazin-3-yl)-6-(methylamino)nicotinamide]
inhibition at 0.04 µM: 50 to 80% | inhibition at 0.2 µM: 50 to 80%

CNc1ccc(C(=O)Nc2ccc(N(C)C)nn2)c(NC[C@H]2CC[C@H](CNC(=O)N3CCN(c4ccc(Nc5ncc6c(C)c(C(C)=O)c(=O)n(C7CCCC7)c6n5)nc4)CC3)CC2)n1 [CPD-169, 4-(6-((6-acetyl-8-cyclopentyl-5-methyl-7-oxo-7,8-dihydropyrido[2,3-d]pyrimidin-2-yl)amino)pyridin-3-yl)-N-((trans-4-(((3-((6-(dimethylamino)pyridazin-3-yl)carbamoyl)-6-(methylamino)pyridin-2-yl)amino)methyl)cyclohexyl)menthyl)piperazine-1-carboxamide]
inhibition at 0.04 µM: < 30% | inhibition at 0.2 µM: 30 to 50%

CC(=O)c1c(C)c2cnc(Nc3ccc(N4CCN(CC(=O)NCCCCCNc5nc(C)ccc5C(=O)Nc5nc(C)c(C)s5)CC4)cn3)nc2n(C2CCCC2)c1=O [CPD-3, 2-((5-(2-(4-(6-((6-acetyl-8-cyclopentyl-5-methyl-7-oxo-7,8-dihydropyrido[2,3-d]pyrimidin-2-yl)amino)pyridin-3-yl)piperazin-1-yl)acetamido)pentyl)amino)-N-(4,5-dimethylthiazol-2-yl)-6-methylnicotinamide]
inhibition at 0.04 µM: 50 to 80% | inhibition at 0.2 µM: 50 to 80%

CNc1ccc(C(=O)Nc2ccc(N(C)C)nn2)c(N2CCC(CCNC(=O)CN3CCN(c4ccc(Nc5ncc6c(C)c(C(C)=O)c(=O)n(C7CCCC7)c6n5)nc4)CC3)CC2)n1 [CPD-42, 2-(4-(2-(2-(4-(6-((6-Acetyl-8-cyclopentyl-5-methyl-7-oxo-7,8-dihydropyrido[2,3-d]pyrimidin-2-yl)amino)pyridin-3-yl)piperazin-1-yl)acetamido)ethyl)piperidin-1-yl)-N-(6-(dimethylamino)pyridazin-3-yl)-6-(methylamino)nicotinamide]
inhibition at 0.04 µM: < 30% | inhibition at 0.2 µM: < 30%

CNc1ccc(C(=O)Nc2ccc(N(C)C)nn2)c(NCCCCC(=O)NCCN2CCN(c3ccc(Nc4ncc5c(C)c(C(C)=O)c(=O)n(C6CCCC6)c5n4)nc3)CC2)n1 [CPD-36, 2-((5-((2-(4-(6-((6-Acetyl-8-cyclopentyl-5-methyl-7-oxo-7,8-dihydropyrido[2,3-d]pyrimidin-2-yl)amino)pyridin-3-yl)piperazin-1-yl)ethyl)amino)-5-oxopentyl)amino)-N-(6-(dimethylamino)pyridazin-3-yl)-6-(methylamino)nicotinamide]
inhibition at 0.04 µM: 30 to 50% | inhibition at 0.2 µM: 50 to 80%

CC(=O)c1c(C)c2cnc(Nc3ccc(N4CCN(CC(=O)NCCCCCNc5nc(C6CC6)ccc5C(=O)Nc5ccc(C)c(C6CC6)n5)CC4)cn3)nc2n(C2CCCC2)c1=O [CPD-44, 2-((5-(2-(4-(6-((6-Acetyl-8-cyclopentyl-5-methyl-7-oxo-7,8-dihydropyrido[2,3-d]pyrimidin-2-yl)amino)pyridin-3-yl)piperazin-1-yl)acetamido)pentyl)amino)-6-cyclopropyl-N-(6-cyclopropyl-5-methylpyridin-2-yl)nicotinamide]
inhibition at 0.04 µM: < 30% | inhibition at 0.2 µM: 30 to 50%

CNc1ccc(C(=O)Nc2ccc(N(C)C)nn2)c(NCC2CC(CNC(=O)CN3CCN(c4ccc(Nc5ncc6c(C)c(C(C)=O)c(=O)n(C7CCCC7)c6n5)nc4)CC3)C2)n1 (centres unmarked) [CPD-188, 2-(((3-((2-(4-(6-((6-acetyl-8-cyclopentyl-5-methyl-7-oxo-7,8-dihydropyrido[2,3-d]pyrimidin-2-yl)amino)pyridin-3-yl)piperazin-1-yl)acetamido)methyl)cyclobutyl)methyl)amino)-N-(6-(dimethylamino)pyridazin-3-yl)-6-(methylamino)nicotinamide]
inhibition at 0.04 µM: 50 to 80% | inhibition at 0.2 µM: 50 to 80%

CNc1ccc(C(=O)Nc2ccn(C)n2)c(NCCCCCNC(=O)CN2CCN(c3ccc(Nc4ncc5c(C)c(C(C)=O)c(=O)n(C6CCCC6)c5n4)nc3)CC2)n1 [CPD-49, 2-((5-(2-(4-(6-((6-Acetyl-8-cyclopentyl-5-methyl-7-oxo-7,8-dihydropyrido[2,3-d]pyrimidin-2-yl)amino)pyridin-3-yl)piperazin-1-yl)acetamido)pentyl)amino)-N-(1-methyl-1H-pyrazol-3-yl)-6-(methylamino)nicotinamide]
inhibition at 0.04 µM: 50 to 80% | inhibition at 0.2 µM: 50 to 80%

CNc1ccc(C(=O)Nc2ccc(N(C)C)nn2)c(Nc2cnn(CCNC(=O)CN3CCN(c4ccc(Nc5ncc6c(C)c(C(C)=O)c(=O)n(C7CCCC7)c6n5)nc4)CC3)n2)n1 [CPD-25, 2-((2-(2-(2-(4-(6-((6-Acetyl-8-cyclopentyl-5-methyl-7-oxo-7,8-dihydropyrido[2,3-d]pyrimidin-2-yl)amino)pyridin-3-yl)piperazin-1-yl)acetamido)ethyl)-2H-1,2,3-triazol-4-yl)amino)-N-(6-(dimethylamino)pyridazin-3-yl)-6-(methylamino)nicotinamide]
inhibition at 0.04 µM: < 30% | inhibition at 0.2 µM: 50 to 80%
